Values of other authors, collected in publication PMC12824232 (Nature Communications, 2025).

What was measured:
[1] = system: ER+/HER2− advanced breast cancer; settings: patients with ESR1 mutations, phase 3 trial
[2] = system: patients with ER+/HER2− advanced breast cancer; settings: phase 2 trial

patients with Grade 3/4 TRAEs [2] [%] | Compound | median PFS [1] [months]
 | CCNCCc1ccc(CN(CC)c2cc(OC)ccc2[C@@H]2CCc3cc(O)ccc3C2)cc1 [elacestrant] | 3.8
6 | O=C1CC[C@H](N2Cc3cc(N4CCN(CC5CCN(c6ccc([C@@H]7c8ccc(O)cc8CC[C@@H]7c7ccccc7)cc6)CC5)CC4)ccc3C2=O)C(=O)N1 [vepdegestrant] | 
